Reference: publication PMC10997755, “Discovery of a small-molecule inhibitor that traps Polθ on DNA and synergizes with PARP inhibitors” (Nature Communications, 2024)
Values after ≈ are worked out from the molar mass of the structure shown. Values joined by “and” are separate entries in the source; they are usually repeats but may differ in a detail not shown here. Equal entries are not always repeated.

Legend:
CAPAN-1 cells = experiment: Clonogenic assay; assay type: cell-based; conditions: Capan-1 cells, vehicle
Procedure: (§1) Cells were plated on six or twelve or twenty-four well plates. In six well plate, 1000 cells/ well of BRCA2 -/-, BRCA1 -/-, PALB2 mut and 500 cells/ well of wildtype pair was plated; In twelve well plate, 600 cells/ well of BRCA2 -/-, BRCA1 -/-, PALB2 mut and 400 cells/ well of wildtype pair was plated; In twenty-four well plate, 500 cells/ well of BRCA2 -/-, BRCA1 -/-, PALB2 mut and 300 cells/ well of wildtype pair was plated. For MEFs, 300 cells per well in six-well plate were seeded. The medium was replaced every 2 days until the colonies were ready for staining in 10–12 days. For staining: Medium was removed from plates, and cells were rinsed with PBS. Fixation was carried out with—Water: Ethanol: Acetic acid (5:4:1) for 30 min followed by staining of colonies with 0.5% crystal violet in Water: Ethanol (3:2) for 2 h at room temperature. The plates were rinsed with water and left for drying overnight at room temperature. Colonies were then counted and IC50 was calculated using results from 3 or more independent experiments. Response curves are shown as mean colony formation +/- S.E.M.
(§2) Data are expressed as mean ± SEM from at least 3 independent experiments with triplicates for each condition unless stated otherwise. When conducting comparison between two groups, two-tailed unpaired t-test was used. Significance was assumed at p < 0.05. Asterisks in the figures indicate significance, ^∗p < 0.05, ^∗∗p < 0.01, ^∗∗∗p < 0.001. Combenefit® software version 2.021 was used to perform synergy analyses for drug combinations between RTx-161 and PARPi. GraphPad Prism 9 software was used to calculate IC50.

VC8 cells = experiment: Clonogenic assay; assay type: cell-based, Chinese hamster; conditions: VC8 cells, vehicle
Procedure: as §1, §2

[1] = Colony survival, ola with or without RTX-161 (source data sheet Fig. 2 b; cell line not given); assay type: cell-based; conditions: vehicle
[2] = Colony survival, ola with or without RTX-161 (source data sheet Fig. 2 c; cell line not given); assay type: cell-based; conditions: ola 0.125 um, RTX-161 0 uM
[3] = Metabolic stability in liver microsomes; assay type: in vitro ADME; conditions: read-out: t1/2 liver microsomes
Polθ-pol [4] = biological target: T1, Polθ-pol (Homo sapiens, UniProt O75417); experiment: Cy5 fluorescence Polθ-pol DNA synthesis (strand displacement) IC50 assay; assay type: biochemical; conditions: Polθ-pol DNA synthesis, Cy5 fluorescence
T1 construct: purified recombinant human Polθ-pol (comprising amino acid residues 1792–2590); made in house
T1 sequence (O75417 1792-2590): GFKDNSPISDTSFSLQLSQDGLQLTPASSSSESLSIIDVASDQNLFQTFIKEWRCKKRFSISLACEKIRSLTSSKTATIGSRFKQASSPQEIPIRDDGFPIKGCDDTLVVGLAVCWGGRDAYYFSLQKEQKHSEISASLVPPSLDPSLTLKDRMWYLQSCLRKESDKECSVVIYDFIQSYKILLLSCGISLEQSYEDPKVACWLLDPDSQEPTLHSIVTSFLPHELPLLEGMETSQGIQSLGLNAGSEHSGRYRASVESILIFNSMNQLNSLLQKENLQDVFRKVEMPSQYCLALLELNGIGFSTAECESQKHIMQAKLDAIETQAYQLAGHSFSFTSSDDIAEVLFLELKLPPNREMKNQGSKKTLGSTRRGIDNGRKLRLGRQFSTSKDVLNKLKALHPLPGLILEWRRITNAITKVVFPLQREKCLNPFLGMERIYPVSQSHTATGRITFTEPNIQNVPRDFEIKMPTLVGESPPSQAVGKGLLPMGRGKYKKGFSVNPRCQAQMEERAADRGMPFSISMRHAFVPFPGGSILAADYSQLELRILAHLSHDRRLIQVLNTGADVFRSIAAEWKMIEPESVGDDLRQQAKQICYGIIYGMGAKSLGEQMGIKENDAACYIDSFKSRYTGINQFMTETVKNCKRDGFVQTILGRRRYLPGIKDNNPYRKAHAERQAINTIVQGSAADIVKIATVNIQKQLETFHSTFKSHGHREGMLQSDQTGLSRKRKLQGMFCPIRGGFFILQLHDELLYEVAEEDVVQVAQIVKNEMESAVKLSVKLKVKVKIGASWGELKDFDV
Procedure: The following Cy5 fluorescence assay was used to measure the ability of compounds to inhibit Polθ-pol in vitro. The fluorescent based assay was performed as follows: 60 nM of the pre-annealed primer-template containing a 5’ Cy5 fluorophore conjugated template strand (RP486-Cy5), a downstream complementary oligo conjugated with a 3’ Iowa BlackReg Dark quencher (RP343BHQRQ) and a primer strand (RP469D) was mixed with 50 uM 2'-deoxyribonucleoside triphosphates (dNTPs), 0.1 mg/mL Bovine serum albumin (BSA), 0.01% NP-40, 10% glycerol, 1 mM dithiothreitol (DTT), 10 mM MgCl2, 25 mM TrisHCl pH 7.8 in the presence of 2.5% DMSO with or without various concentrations (7-point dilution series) of Polθ-pol small-molecule inhibitors at 37 °C in a volume of 40 μL. The reactions were initiated by the addition of 5 nM of purified recombinant human Polθ-pol (comprising amino acid residues 1792–2590). The reactions were terminated by the addition of 20 mM EDTA after 18 min, and the Cy5 fluorescence intensity was measured using a CLARIOstar (BMG Labtech) plate reader. Reactions were performed in triplicate and the % inhibition at each concentration of the respective compound of Formula I was based on the mean.

Solubility (2% DMSO/PBS) = assay type: physicochemical; conditions: aqueous buffer, kinetic from dmso stock
[5] = biological target: T2, PolθΔL (Polθ-pol, five loops replaced) (UniProt O75417 …, internal_change); experiment: X-ray crystallography, 3.24 Å; RTx-152, ddGTP, Mg2+; closed conformation; Endonuclease protection buffer not in the material; crystals: 0.24 M Na citrate, 18% PEG 3350, 0.1 M Bis Tris propane pH 7.5, with 1 mM MgCl2, 1 mM ddGTP, 20 mM spermine in the complex mix; conditions: protein: recombinant; tags: 6xHis-SUMO removed with PreScission protease; 5' overhang 10 nt on template; 14 bp duplex
T2 sequence: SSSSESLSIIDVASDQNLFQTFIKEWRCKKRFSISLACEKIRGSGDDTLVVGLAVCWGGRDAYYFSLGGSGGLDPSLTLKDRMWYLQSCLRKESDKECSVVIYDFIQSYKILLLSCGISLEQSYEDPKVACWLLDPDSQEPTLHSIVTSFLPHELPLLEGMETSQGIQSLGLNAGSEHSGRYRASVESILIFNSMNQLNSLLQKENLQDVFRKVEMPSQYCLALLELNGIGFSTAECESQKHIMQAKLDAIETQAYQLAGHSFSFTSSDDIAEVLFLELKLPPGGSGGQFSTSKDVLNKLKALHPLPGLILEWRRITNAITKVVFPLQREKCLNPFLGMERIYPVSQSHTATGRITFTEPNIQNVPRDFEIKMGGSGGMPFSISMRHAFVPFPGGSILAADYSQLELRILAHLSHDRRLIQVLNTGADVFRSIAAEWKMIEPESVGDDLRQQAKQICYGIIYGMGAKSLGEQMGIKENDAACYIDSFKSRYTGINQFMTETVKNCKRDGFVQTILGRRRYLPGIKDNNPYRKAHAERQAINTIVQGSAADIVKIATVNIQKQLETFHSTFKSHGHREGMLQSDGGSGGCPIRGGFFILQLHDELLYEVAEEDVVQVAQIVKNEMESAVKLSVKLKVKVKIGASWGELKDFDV

Polθ-pol [6] = biological target: T3, Polθ-pol (human, UniProt O75417 1792-2590); experiment: EcoRI endonuclease protection with unlabeled DNA trap; RTx-161, ddCTP; cleavage suppressed >10 min; Endonuclease protection buffer not in the material; crystals: 0.24 M Na citrate, 18% PEG 3350, 0.1 M Bis Tris propane pH 7.5, with 1 mM MgCl2, 1 mM ddGTP, 20 mM spermine in the complex mix; conditions: protein: recombinant; label: 32P (5'); 5' overhang 12 nt on template; 14 bp duplex
T3 sequence: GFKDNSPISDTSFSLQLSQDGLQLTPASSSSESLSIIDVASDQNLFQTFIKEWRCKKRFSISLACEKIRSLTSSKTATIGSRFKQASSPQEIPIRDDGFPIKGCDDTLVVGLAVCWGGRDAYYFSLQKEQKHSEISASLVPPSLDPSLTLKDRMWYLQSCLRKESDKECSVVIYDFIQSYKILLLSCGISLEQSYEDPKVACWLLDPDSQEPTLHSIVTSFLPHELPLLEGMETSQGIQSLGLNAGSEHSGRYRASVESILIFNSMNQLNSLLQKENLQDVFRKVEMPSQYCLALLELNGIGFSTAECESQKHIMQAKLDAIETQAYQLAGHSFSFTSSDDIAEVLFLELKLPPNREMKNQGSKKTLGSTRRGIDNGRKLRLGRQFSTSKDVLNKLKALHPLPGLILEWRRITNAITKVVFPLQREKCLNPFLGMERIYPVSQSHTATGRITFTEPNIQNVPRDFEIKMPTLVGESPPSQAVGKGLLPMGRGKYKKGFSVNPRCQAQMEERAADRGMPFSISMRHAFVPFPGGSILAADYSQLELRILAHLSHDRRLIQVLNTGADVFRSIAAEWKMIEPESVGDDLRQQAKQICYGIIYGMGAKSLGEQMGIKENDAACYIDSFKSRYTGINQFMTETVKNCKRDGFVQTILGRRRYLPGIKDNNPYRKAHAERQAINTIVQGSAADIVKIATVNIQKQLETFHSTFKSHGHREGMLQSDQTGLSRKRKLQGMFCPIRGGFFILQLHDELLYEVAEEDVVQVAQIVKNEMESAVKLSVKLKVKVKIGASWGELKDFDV

Fl-Polθ = Fl-Polθ (UniProt O75417 1-2590); experiment: EcoRI endonuclease protection with unlabeled DNA trap; RTx-152, ddCTP; i+1 complex fully resistant; Endonuclease protection buffer not in the material; crystals: 0.24 M Na citrate, 18% PEG 3350, 0.1 M Bis Tris propane pH 7.5, with 1 mM MgCl2, 1 mM ddGTP, 20 mM spermine in the complex mix; conditions: protein: recombinant; label: 32P (5'); 5' overhang 12 nt on template; 14 bp duplex

O=C(c1cc(Cc2n[nH]c(=O)c3ccccc23)ccc1F)N1CCN(C(=O)C2CC2)CC1 [ola]
percent suvival (CAPAN-1 cells; ola 0.041 micro M, experiment block 1 (c0-c9)): 35.7622% | percent suvival (CAPAN-1 cells; ola 0.041 micro M, experiment block 2 (c10-c19)): 95.0051% | percent suvival (CAPAN-1 cells; ola 0.041 micro M, experiment block 3 (c20-c29)): 99.322% | percent suvival (CAPAN-1 cells; ola 0.123 micro M, experiment block 1 (c0-c9)): 20.5479% | percent suvival (CAPAN-1 cells; ola 0.123 micro M, experiment block 2 (c10-c19)): 86.264% | percent suvival (CAPAN-1 cells; ola 0.123 micro M, experiment block 3 (c20-c29)): 101.808% | percent suvival (CAPAN-1 cells; ola 0.37 micro M, experiment block 1 (c0-c9)): 15.0785% | percent suvival (CAPAN-1 cells; ola 0.37 micro M, experiment block 2 (c10-c19)): 58.3758% | percent suvival (CAPAN-1 cells; ola 0.37 micro M, experiment block 3 (c20-c29)): 61.807% | percent suvival (CAPAN-1 cells; ola 1.11 micro M, experiment block 1 (c0-c9)): 13.2577% | percent suvival (CAPAN-1 cells; ola 1.11 micro M, experiment block 2 (c10-c19)): 54.2134% | percent suvival (CAPAN-1 cells; ola 1.11 micro M, experiment block 3 (c20-c29)): 43.0496% | percent suvival (VC8 cells; ola 1.875 nano M): 82.1918% and 93.3333% and 61.7978% | percent suvival (VC8 cells; ola 30.00 nano M): 0% | percent suvival ([1]; ola 7.9 nano M): 85.0909% and 53.0303% and 63.9535% | percent suvival ([1]; ola 11.8 nano M): 61.0909% | percent suvival ([1]; ola 17.70 nano M): 49.2424% and 44.186% and 51.6364% | percent suvival ([1]; ola 26.60 nano M): 49.0909% | percent suvival ([1]; ola 40.00 nano M): 44.7273% and 28.7879% and 31.9767% | percent suvival ([1]; ola 60.00 nano M): 38.5455% | percent suvival ([1]; ola 90.00 nano M): 15.1515% and 16.8605% and 24.3636% | percent suvival [2]: 53.6122% and 69.9422% and 40.4494%

CN(C(=O)Oc1c(Cl)cc(Cl)c2cccnc12)c1ccccc1 [MC280003]
half-life [3]: 1.5 min | IC50 (Polθ-pol [4]): 160 nM | solubility (Solubility (2% DMSO/PBS)): 21 µM (≈ 7.29 µg/mL)

B1: crystallization primer-template (dsDNA)
DNA 1: CGACGTCGCAGCGC
DNA 2: GCGAGACTCCGCGCTGCGACGTCG
binding result [5]: binds

B2: LM3-EcoRI/LM4-EcoRI primer-template (dsDNA)
DNA 1: CGGCGAATTCGCAG
DNA 2: AGTAAGAGAACGCTGCGAATTCGCCG
binding result (Polθ-pol [6]): binds | binding result (Fl-Polθ): binds
